# ChEMBL document CHEMBL1921749, “5-Lipoxygenase-activating protein (FLAP) inhibitors. Part 4: development of 3-[3-tert-butylsulfanyl-1-[4-(6-ethoxypyridin-3-yl)benzyl]-5-(5-methylpyridin-2-ylmethoxy)-1H-indol-2-yl]-2,2-dimethylpropionic acid (AM803), a potent, oral, once daily FLAP inhibitor” (J Med Chem, 2011)
# Tests used:
# [1] = system: Rattus norvegicus; test: Antiinflammatory activity in rat assessed as inhibition of calcium ionophore A23187-induced LTB4 production in bronchoalveolar lavage fluid at 3 mg/kg, po administered 4 hrs prior to A23187 challenge; type: functional, Lung; design: scale not given: the % may be the effect or the level left
# [2] = biological target: Prostaglandin G/H synthase 1 (Homo sapiens, UniProt P23219); test: Inhibition of COX1-mediated TXB2 production in human whole blood after 30 mins by competitive enzyme immunoassay
# Prostaglandin G/H synthase 1, sequence (P23219 whole entry): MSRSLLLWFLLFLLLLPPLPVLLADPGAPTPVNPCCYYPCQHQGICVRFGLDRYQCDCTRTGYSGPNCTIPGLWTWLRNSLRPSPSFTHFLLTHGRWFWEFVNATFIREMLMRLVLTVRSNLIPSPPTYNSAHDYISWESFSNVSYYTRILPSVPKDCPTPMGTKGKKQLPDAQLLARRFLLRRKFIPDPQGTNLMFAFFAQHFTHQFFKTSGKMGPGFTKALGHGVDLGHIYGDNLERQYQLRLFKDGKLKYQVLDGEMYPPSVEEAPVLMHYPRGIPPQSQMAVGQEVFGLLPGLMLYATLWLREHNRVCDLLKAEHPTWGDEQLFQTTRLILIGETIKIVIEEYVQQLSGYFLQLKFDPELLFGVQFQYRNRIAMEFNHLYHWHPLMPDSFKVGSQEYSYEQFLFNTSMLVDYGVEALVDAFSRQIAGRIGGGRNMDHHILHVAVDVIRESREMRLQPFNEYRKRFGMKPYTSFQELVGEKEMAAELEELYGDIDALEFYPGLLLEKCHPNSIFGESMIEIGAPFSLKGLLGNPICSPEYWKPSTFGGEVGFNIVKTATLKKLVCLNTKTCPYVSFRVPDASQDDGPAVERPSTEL
# [3] = system: Rattus norvegicus; test: Antiinflammatory activity in rat assessed as inhibition of calcium ionophore A23187-induced CysLT production in bronchoalveolar lavage fluid at 3 mg/kg, po administered 4 hrs prior to A23187 challenge; type: functional, Lung; design: scale not given: the % may be the effect or the level left
# [4] = system: Plasma; test: Plasma protein binding in dog; type: ADME, cell-free, Canis lupus familiaris
# [5] = biological target: T1, Cytochrome P450 3A4 (Homo sapiens, UniProt P08684); test: Time-dependent inhibition of CYP3A4 at 10 uM; type: ADME
# T1 sequence (P08684 whole entry): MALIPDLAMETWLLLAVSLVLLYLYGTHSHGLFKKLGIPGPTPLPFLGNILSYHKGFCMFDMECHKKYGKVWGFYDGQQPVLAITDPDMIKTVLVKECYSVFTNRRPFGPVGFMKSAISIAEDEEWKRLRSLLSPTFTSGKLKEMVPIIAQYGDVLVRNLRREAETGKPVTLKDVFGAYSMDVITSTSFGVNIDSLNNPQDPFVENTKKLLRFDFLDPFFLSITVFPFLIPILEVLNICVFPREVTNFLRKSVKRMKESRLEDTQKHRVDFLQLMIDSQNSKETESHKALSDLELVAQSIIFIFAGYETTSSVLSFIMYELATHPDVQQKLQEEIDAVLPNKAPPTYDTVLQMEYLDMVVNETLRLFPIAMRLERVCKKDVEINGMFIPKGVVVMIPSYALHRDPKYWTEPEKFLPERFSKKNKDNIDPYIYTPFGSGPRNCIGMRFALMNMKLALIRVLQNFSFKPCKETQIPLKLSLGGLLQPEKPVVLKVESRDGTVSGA
# [6] = biological target: T2, Arachidonate 5-lipoxygenase-activating protein (Homo sapiens, UniProt P20292); test: Inhibition of FLAP in human whole blood assessed as inhibition of calcium ionophore A23187-induced LTB4 production preincubated for 5 hrs by ELISA
# T2 sequence (P20292 whole entry): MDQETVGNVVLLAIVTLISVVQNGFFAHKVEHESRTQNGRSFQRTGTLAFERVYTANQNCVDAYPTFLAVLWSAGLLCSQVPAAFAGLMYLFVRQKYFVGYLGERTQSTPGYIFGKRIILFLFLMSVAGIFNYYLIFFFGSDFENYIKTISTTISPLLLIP
# [7] = biological target: T1, Cytochrome P450 3A4; test: Inhibition of human CYP3A4; type: ADME
# [8] = biological target: T2, Arachidonate 5-lipoxygenase-activating protein; test: Inhibition of FLAP in human peripheral leukocytes assessed as inhibition of calcium ionophore A23187-induced LTB4 production after 3 hr by ELISA in presence of 0.5% human serum albumin; type: cell-based
# [9] = biological target: T2, Arachidonate 5-lipoxygenase-activating protein; test: Inhibition of FLAP in human peripheral leukocytes assessed as inhibition of calcium ionophore A23187-induced LTB4 production after 10 mins by ELISA in presence of 0.5% human serum albumin; type: cell-based
# [10] = system: Rattus norvegicus; test: Antiinflammatory activity in rat assessed as inhibition of calcium ionophore A23187-induced CysLT production in bronchoalveolar lavage fluid at 3 mg/kg, po administered 16 hrs prior to A23187 challenge; type: functional, Lung; design: scale not given: the % may be the effect or the level left
# [11] = biological target: T3, Leukotriene C4 synthase (Homo sapiens, UniProt Q16873); test: Inhibition of LTC4 synthase
# T3 sequence (Q16873 whole entry): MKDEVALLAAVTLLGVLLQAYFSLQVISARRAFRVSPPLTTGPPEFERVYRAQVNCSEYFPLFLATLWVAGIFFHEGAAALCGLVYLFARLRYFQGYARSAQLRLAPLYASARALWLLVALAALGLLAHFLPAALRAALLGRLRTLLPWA
# [12] = biological target: T4, Arachidonate 5-lipoxygenase-activating protein (Rattus norvegicus, UniProt P20291); test: Inhibition of FLAP in rat whole blood assessed as inhibition of calcium ionophore A23187-induced LTB4 production preincubated for 4 hrs by ELISA; type: tissue-based
# T4 sequence (P20291 whole entry): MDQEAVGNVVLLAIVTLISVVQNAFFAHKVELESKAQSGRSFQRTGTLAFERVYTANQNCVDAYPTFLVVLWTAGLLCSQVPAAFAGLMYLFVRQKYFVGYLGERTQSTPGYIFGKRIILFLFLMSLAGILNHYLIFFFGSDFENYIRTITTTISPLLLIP
# [13] = biological target: T5, Polyunsaturated fatty acid 5-lipoxygenase (Homo sapiens, UniProt P09917); test: Inhibition of 5-lipoxygenase
# T5 sequence (P09917 whole entry): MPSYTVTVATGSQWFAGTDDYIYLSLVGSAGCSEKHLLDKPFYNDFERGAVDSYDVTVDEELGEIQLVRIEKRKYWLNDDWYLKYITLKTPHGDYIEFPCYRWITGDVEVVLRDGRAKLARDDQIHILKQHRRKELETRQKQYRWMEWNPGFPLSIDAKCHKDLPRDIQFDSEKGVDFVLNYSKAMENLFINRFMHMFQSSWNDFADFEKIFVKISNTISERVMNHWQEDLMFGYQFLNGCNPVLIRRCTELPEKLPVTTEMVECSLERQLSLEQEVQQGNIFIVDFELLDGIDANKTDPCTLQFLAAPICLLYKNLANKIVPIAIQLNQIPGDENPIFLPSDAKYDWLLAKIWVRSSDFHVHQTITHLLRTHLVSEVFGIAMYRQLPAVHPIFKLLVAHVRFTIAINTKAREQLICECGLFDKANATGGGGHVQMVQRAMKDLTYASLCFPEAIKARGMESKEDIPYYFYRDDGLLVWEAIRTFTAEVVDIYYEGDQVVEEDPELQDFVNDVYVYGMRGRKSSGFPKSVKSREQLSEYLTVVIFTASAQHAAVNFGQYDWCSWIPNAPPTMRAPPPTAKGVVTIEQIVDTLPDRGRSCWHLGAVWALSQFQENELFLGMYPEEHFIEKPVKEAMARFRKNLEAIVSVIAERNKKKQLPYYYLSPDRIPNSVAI
# [14] = Volume of distribution in Beagle dog at 2 mg/kg, iv; type: ADME, organism-based, Canis lupus familiaris; design: dose 2 mg/kg, route intravenous; conditions: in vivo
# [15] = biological target: T2, Arachidonate 5-lipoxygenase-activating protein; test: Inhibition of FLAP in human peripheral leukocytes assessed as inhibition of calcium ionophore A23187-induced LTB4 production after 5 mins by ELISA in absence of human serum albumin; type: cell-based
# [16] = Plasma protein binding in human; type: ADME, cell-free; conditions: read-out: PPB (converted)
compound,measurement,setting,value
CCOc1ccc(-c2ccc(Cn3c(CC(C)(C)C(=O)O)c(SC(C)(C)C)c4cc(OCc5ccc(C)cn5)ccc43)cc2)cn1 [FIBOFLAPON],Activity,[1],100%
same,IC50,[2],58000 nM
same,Activity,[3],80%
same,PPB,[4],99.7%
same,TDI,[5],Not Active
same,IC50,[6],76 nM
same,IC50,[7],> 50000 nM
same,IC50,[8],4 nM
same,IC50,[9],26 nM
same,Activity,[10],41%
same,IC50,[11],36000 nM
same,IC50,[12],16 nM
same,IC50,[13],20000 nM
same,Vd,[14],0.2 L/kg
same,IC50,[15],1 nM
same,fraction unbound,[16],0.005
